Values belong to the molecule of their own block, whether it stands above or below them.
What was measured:
Acetylcholinesterase [1] = target: T1, Acetylcholinesterase (Homo sapiens, UniProt P22303); assay: Inhibition of AChE (unknown origin) using ATCI as substrate incubated for 30 mins by Ellman's method
Cholinesterase [2] = target: T2, Cholinesterase (Homo sapiens, UniProt P06276); assay: Inhibition of BChE (unknown origin) using BTCI as substrate incubated for 30 mins by Ellman's method
[3] = target: T3, Amyloid-beta precursor protein (Homo sapiens, UniProt P05067); assay: Inhibition of Amyloid beta (1 to 42) (unknown origin) self aggregation at 25 uM by ThT-based fluorescence assay relative to control
T3 sequence (P05067 whole entry): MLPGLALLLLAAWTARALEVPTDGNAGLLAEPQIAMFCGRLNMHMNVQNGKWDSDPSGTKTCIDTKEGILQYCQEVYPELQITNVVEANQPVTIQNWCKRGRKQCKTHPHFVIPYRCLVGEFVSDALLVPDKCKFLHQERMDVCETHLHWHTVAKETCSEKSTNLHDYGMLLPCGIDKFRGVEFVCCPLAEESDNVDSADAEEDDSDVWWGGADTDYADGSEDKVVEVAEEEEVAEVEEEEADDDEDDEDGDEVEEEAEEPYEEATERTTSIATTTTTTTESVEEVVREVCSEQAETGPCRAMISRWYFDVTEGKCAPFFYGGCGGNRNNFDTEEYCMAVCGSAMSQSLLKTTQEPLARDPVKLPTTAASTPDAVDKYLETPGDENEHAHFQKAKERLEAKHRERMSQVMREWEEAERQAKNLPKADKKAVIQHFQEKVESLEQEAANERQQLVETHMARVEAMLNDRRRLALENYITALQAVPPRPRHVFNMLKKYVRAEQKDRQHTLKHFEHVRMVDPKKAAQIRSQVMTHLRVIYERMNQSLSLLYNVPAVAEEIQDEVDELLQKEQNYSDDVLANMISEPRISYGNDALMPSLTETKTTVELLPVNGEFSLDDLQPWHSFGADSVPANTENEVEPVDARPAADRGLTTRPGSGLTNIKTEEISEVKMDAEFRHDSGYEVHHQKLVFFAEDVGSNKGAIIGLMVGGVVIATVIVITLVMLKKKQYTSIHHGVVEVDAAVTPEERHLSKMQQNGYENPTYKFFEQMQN

[4] = Antioxidant activity assessed as DPPH radical scavenging activity measured after 15 mins; assay type: functional
Liver = assay: tissue or blood; details: Canis lupus familiaris
Description: Antioxidant activity assessed as Fe2+/ascorbate-induced MDA level in liver mitochondria (unknown origin) preincubated for 30 mins followed by addition of Fe2+/ascorbate measured after 30 mins

[5] = target: T4, Amine oxidase [flavin-containing] B (Homo sapiens, UniProt P27338); assay: Inhibition of human recombinant MAO-B incubated for 15 mins by Amplex red MAO assay
T4 sequence (P27338 whole entry): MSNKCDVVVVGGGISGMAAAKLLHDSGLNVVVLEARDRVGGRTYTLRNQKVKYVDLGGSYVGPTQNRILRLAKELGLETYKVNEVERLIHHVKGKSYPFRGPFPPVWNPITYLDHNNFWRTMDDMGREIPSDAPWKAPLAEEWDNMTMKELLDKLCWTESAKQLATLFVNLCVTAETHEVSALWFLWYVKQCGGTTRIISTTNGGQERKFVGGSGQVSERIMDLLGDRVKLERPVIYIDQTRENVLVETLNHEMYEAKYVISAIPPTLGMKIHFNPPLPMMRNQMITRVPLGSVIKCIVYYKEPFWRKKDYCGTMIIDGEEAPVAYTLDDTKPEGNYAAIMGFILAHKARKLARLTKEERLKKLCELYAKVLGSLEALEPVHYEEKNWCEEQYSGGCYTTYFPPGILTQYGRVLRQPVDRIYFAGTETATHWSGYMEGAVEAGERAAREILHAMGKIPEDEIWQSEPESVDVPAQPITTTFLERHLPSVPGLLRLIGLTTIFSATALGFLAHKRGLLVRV

[6] = Antioxidant activity assessed as DPPH radical scavenging activity measured after 20 mins; assay type: functional
[7] = Antioxidant activity assessed as galvinoxyl radical scavenging activity measured after 20 mins; assay type: functional
[8] = Antioxidant activity assessed as ABTS radical scavenging activity measured after 6 mins; assay type: functional
PC-12 = assay: Neuroprotective activity against H2o2-induced rat PC-12 cells assessed as cell viability preincubated for 2 hrs followed by H2O2 treatment measured after 24 hrs by MTT assay; assay type: functional; details: time 26 hrs
C2C12 = assay: Cytotoxicity against mouse C2C12 cells incubated for 24 to 48 hrs by MTT assay; assay type: toxicity, cell-based; details: time 24-48 hrs
Acetylcholinesterase [9] = target: T1, Acetylcholinesterase; assay: Binding affinity to AChE (unknown origin) assessed as inhibition constant
[10] = Antioxidant activity assessed as ABTS radical scavenging activity; assay type: functional
[11] = time 30.0 min
Acetylcholinesterase [12] = target: T1, Acetylcholinesterase; assay: Inhibition of AChE (unknown origin) incubated for 30 mins by Ellman's method
[13] = target: T5, Polyunsaturated fatty acid 5-lipoxygenase (Homo sapiens, UniProt P09917); assay: Inhibition of human LOX-5 in presence of LOX substrate solution incubated for 10 mins by Varioskan-flash microplate spectrophotometer reader
T5 sequence (P09917 whole entry): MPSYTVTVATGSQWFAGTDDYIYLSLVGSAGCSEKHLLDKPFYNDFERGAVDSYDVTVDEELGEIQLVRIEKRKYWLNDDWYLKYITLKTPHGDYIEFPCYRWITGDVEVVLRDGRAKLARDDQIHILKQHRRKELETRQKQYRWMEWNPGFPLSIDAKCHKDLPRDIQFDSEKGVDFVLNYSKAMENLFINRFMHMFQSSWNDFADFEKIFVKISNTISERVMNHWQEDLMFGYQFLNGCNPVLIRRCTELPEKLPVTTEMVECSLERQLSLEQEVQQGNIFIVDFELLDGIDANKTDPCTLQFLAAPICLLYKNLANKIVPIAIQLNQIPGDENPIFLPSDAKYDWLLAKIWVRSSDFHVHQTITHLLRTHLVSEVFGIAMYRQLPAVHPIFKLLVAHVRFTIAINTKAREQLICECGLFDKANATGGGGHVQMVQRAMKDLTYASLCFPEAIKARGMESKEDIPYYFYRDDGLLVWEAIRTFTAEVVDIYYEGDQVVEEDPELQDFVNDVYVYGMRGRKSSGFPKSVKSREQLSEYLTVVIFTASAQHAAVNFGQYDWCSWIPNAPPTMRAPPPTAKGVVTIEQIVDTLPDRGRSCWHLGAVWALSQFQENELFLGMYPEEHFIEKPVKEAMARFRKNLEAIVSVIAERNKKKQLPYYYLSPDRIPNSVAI

Cholinesterase [14] = target: T2, Cholinesterase
Description: Inhibition of BChE (unknown origin) incubated for 30 mins by Ellman's method

[15] = Antioxidant activity assessed as trolox equivalent of ORAC radical scavenging activity by ORAC-FL assay; assay type: functional
Carbonic anhydrase 1 = Carbonic anhydrase 1 (Homo sapiens, UniProt P00915); assay: Binding affinity to carbonic anhydrase 1 (unknown origin) assessed as inhibition constant
Carbonic anhydrase 1, sequence (P00915 whole entry): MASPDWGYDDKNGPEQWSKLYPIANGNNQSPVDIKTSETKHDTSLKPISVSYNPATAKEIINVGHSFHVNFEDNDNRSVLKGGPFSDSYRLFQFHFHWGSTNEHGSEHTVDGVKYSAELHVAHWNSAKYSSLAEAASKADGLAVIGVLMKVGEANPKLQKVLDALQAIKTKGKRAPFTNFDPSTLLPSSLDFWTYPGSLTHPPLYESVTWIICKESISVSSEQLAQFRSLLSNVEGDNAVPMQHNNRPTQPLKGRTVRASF

Carbonic anhydrase 2 = Carbonic anhydrase 2 (Homo sapiens, UniProt P00918)
Description: Binding affinity to carbonic anhydrase 2 (unknown origin) assessed as inhibition constant

[16] = target: T3, Amyloid-beta precursor protein; assay: Inhibition of Amyloid beta (1 to 42) (unknown origin) self aggregation at 25 uM incubated for 24 hrs by ThT-based fluorescence assay relative to control
[17] = Permeability of the compound across blood brain barrier measured after 18 hrs by parallel artificial membrane permeation assay; assay type: ADME; details: PAMPA, read-out: permeability
Acetylcholinesterase [18] = target: Acetylcholinesterase (Electrophorus electricus, UniProt O42275); assay: Inhibition of electric eel AChE measured after 2 mins by Ellman's method
Acetylcholinesterase (Electrophorus electricus, UniProt O42275), sequence (O42275 whole entry): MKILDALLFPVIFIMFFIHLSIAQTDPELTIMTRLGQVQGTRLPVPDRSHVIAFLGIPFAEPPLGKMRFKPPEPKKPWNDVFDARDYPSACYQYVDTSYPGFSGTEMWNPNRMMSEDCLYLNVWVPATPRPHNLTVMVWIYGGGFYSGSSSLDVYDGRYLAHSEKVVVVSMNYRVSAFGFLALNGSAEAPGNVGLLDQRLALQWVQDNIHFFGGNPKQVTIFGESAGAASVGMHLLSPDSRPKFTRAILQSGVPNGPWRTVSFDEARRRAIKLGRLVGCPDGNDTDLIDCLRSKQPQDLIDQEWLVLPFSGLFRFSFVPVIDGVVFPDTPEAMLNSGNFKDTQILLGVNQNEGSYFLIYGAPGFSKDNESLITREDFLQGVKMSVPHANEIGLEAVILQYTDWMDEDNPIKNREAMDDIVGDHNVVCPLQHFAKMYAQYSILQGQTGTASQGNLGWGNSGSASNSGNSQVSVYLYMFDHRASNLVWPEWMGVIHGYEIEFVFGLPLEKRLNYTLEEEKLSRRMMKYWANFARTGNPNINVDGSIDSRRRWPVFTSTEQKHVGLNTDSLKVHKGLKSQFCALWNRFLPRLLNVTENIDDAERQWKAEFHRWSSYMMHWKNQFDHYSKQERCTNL

[19] = target: T4, Amine oxidase [flavin-containing] B
Description: Inhibition of human recombinant MAO-B incubated for 30 mins by fluorescence based assay

Acetylcholinesterase [20] = target: T1, Acetylcholinesterase; assay: Binding affinity to AChE (unknown origin) assessed as inhibition constant using AChI as substrate incubated for 15 mins by Ellman's spectrophotometric method
Beta-secretase 1 = Beta-secretase 1 (Homo sapiens, UniProt P56817); assay: Inhibition of human recombinant BACE-1 expressed in baculovirus using Rh-EVNLDAEFK-Quencher as substrate incubated for 60 mins by measuring increase in fluorescence intensity using fluorescence microplate reader
Beta-secretase 1, sequence (P56817 whole entry): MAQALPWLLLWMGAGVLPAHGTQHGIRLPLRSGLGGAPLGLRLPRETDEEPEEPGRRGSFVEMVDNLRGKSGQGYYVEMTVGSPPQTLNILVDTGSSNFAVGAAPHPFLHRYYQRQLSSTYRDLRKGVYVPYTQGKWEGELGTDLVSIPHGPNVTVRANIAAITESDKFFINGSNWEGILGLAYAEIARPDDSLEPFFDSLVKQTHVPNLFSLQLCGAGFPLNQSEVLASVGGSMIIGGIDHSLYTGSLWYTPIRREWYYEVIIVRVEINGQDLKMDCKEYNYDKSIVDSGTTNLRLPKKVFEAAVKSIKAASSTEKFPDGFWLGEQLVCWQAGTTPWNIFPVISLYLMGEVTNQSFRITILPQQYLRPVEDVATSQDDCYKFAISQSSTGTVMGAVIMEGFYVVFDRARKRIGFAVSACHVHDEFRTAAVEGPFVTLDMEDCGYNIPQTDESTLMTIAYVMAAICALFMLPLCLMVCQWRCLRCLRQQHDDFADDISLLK

[21] = Antioxidant activity assessed as DPPH radical scavenging activity measured after 45 mins by Varioskan-flash microplate spectrophotometer reader; assay type: functional
[22] = target: T3, Amyloid-beta precursor protein; assay: Inhibition of HFIP-treated Amyloid beta (1 to 42) (unknown origin) self aggregation at 20 uM incubated for 46 to 48 hrs by fluorescence based assay relative to control; details: time 46-48 hrs
[23] = target: T3, Amyloid-beta precursor protein
[24] = target: T6, Amine oxidase [flavin-containing] A (Homo sapiens, UniProt P21397)
T6 sequence (P21397 whole entry): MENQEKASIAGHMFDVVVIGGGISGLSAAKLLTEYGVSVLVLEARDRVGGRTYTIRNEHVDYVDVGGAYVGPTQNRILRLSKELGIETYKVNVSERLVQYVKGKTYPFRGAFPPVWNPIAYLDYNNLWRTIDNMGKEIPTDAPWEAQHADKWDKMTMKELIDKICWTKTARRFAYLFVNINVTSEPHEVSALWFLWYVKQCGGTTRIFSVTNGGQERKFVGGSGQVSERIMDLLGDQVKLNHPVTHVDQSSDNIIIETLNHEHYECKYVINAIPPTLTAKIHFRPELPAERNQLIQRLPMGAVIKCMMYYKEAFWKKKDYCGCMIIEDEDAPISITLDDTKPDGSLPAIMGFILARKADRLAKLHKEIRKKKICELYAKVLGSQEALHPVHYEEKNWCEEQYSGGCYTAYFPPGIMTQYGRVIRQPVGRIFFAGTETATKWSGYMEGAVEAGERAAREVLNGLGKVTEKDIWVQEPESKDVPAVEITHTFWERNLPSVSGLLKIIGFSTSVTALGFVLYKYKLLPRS
Description: Inhibition of human recombinant MAO-A incubated for 15 mins by Amplex red MAO assay

T1 sequence (P22303 whole entry): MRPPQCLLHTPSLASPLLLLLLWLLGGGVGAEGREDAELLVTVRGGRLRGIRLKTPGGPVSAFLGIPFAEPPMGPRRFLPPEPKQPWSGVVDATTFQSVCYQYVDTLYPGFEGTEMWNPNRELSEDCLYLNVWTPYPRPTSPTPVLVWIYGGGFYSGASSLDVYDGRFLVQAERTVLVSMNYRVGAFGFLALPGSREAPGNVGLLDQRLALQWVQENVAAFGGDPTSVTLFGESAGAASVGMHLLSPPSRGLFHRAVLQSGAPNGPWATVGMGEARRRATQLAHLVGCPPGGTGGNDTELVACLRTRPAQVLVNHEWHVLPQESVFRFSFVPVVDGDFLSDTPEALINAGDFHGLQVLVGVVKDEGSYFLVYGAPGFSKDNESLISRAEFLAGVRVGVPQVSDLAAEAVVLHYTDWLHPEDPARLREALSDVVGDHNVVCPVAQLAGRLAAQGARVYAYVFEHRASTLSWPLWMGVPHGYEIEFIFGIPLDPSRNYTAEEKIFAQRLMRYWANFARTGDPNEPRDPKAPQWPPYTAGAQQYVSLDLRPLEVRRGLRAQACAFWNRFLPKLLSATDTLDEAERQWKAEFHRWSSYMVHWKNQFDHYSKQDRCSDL
T2 sequence (P06276 whole entry): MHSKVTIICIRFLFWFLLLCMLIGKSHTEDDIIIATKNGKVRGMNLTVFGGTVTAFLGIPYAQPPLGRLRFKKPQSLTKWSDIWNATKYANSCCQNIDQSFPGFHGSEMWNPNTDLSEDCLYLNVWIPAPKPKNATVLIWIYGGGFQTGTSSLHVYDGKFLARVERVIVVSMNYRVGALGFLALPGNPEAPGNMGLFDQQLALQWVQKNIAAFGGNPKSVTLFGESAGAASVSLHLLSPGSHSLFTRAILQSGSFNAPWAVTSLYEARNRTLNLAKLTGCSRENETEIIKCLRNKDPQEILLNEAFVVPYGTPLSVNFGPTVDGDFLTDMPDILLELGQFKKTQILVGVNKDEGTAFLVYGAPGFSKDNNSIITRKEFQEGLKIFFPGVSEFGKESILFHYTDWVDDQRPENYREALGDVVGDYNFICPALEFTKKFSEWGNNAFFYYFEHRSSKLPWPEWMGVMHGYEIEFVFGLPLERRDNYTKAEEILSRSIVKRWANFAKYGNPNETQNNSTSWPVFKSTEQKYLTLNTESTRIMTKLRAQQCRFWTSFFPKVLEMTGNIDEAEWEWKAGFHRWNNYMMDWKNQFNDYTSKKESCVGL

SMILES: CCn1c2ccccc2c2cc(/C=C/c3ccc(NC(=S)NCCN4CCCC4)cc3)ccc21
IC50 (Acetylcholinesterase [1]): 2.64 µM
IC50 (Cholinesterase [2]): 1.29 µM
inhibition [3]: 51.3%
Activity [4]: 86.1 µM

EC50 (Liver): 2.43 µM
SMILES: CCc1nc(/C=C/c2ccc(O)c(O)c2)ccc1O

SMILES: Oc1ccc(/C=C/c2cc(O)cc(O)c2)cc1 [RESVERATROL]
IC50 [5]: 31.8 µM
RC50 [6]: 26.4 µmol/mL
RC50 [7]: 72.7 µmol/mL
RC50 [8]: 1.43 µmol/mL
Activity (PC-12): 81.23%
Activity (C2C12): 110%
EC50 (Liver): 7.44 µM

SMILES: NS(=O)(=O)c1ccc(NCc2cccc(Br)c2O)cc1
Ki (Acetylcholinesterase [9]): 0.0777 µM
Activity [10]: 74.5%
Activity [11]: 4.2%

SMILES: COc1cc(/C=C/c2cc(=O)oc3c2ccc2oc(-c4ccccc4)cc23)cc(OC)c1
IC50 (Acetylcholinesterase [12]): 1.8 µM
IC50 [13]: 13.9 µM
IC50 (Cholinesterase [14]): 3.5 µM

SMILES: COc1ccc(-c2cc3c(ccc4c(/C=C/c5cc(OC)cc(OC)c5)cc(=O)oc43)o2)cc1
IC50 (Acetylcholinesterase [12]): 1.8 µM
IC50 [13]: 13.9 µM
IC50 (Cholinesterase [14]): 3.5 µM

SMILES: Oc1ccc(/N=C/c2ccc(O)c(O)c2O)cc1
RC50 [6]: 8.77 µmol/mL
RC50 [7]: 15.4 µmol/mL
RC50 [8]: 1.98 µmol/mL

SMILES: Oc1ccc(/C=C/c2ccc(C(F)(F)F)cc2)cc1Cl
Activity (C2C12): 150%

SMILES: NS(=O)(=O)c1ccc(NCc2cccc(Cl)c2O)cc1
Ki (Acetylcholinesterase [9]): 0.021 µM

SMILES: Cc1ncc(/C=C/c2ccc(CN3CCOCC3)c(O)c2)c(CO)c1O
Activity [15]: 1.52 µM

SMILES: COc1cc(/C=C/c2cc(=O)oc3c2ccc2oc(-c4cccc(Cl)c4)cc23)cc(OC)c1
IC50 (Acetylcholinesterase [12]): 1.8 µM
IC50 [13]: 13.9 µM
IC50 (Cholinesterase [14]): 3.5 µM

SMILES: COc1cc(/C=C/c2cc(=O)oc3c2ccc2oc(-c4ccc(F)cc4)cc23)cc(OC)c1
IC50 (Acetylcholinesterase [12]): 1.8 µM
IC50 [13]: 13.9 µM
IC50 (Cholinesterase [14]): 3.5 µM

SMILES: NS(=O)(=O)c1ccc(/N=C/c2cc(Br)cc(Cl)c2O)cc1
Ki (Carbonic anhydrase 1): 0.0321 µM
Ki (Acetylcholinesterase [9]): 0.021 µM
Ki (Carbonic anhydrase 2): 0.016 µM

SMILES: CCN(CC)C[C@@H](O)COc1ccc(/C=C/c2cc(OC)cc(OC)c2)cc1
inhibition [16]: 40.2%
Papp at 18 h [17]: 8.12 ×10⁻⁶ cm/s
IC50 (Acetylcholinesterase [18]): 24 µM
Activity (PC-12): 74.9%

IC50 [19]: 1.5 µM
SMILES: Cc1ncc(/C=C/c2ccc(CN3CCCCC3)c(O)c2)c2c1OC(C)(C)OC2
Activity [15]: 1.52 µM

SMILES: COc1cc(/C=C/c2cc(=O)oc3c2ccc2oc(-c4ccc(Cl)cc4)cc23)cc(OC)c1
IC50 (Acetylcholinesterase [12]): 1.8 µM
IC50 [13]: 13.9 µM
IC50 (Cholinesterase [14]): 3.5 µM

SMILES: NS(=O)(=O)c1ccc(/N=C/c2cc(Br)cc(Br)c2O)cc1
Ki (Acetylcholinesterase [20]): 2.54 µM
Ki (Carbonic anhydrase 1): 0.0321 µM
Ki (Acetylcholinesterase [9]): 0.021 µM

SMILES: COc1cc(/C=C/c2cc(=O)oc3c2ccc2oc(-c4cccc(F)c4)cc23)cc(OC)c1
IC50 (Acetylcholinesterase [12]): 1.8 µM
IC50 [13]: 13.9 µM
IC50 (Cholinesterase [14]): 3.5 µM

IC50 [19]: 2.11 µM
SMILES: Cc1ncc(/C=C/c2ccc(CN3CCCCC3)c(O)c2)c(CO)c1O
Activity [15]: 1.52 µM

SMILES: COc1cc(/C=C/c2cc(=O)oc3c2ccc2oc(-c4cc(OC)cc(OC)c4)cc23)cc(OC)c1
IC50 (Acetylcholinesterase [12]): 2.8 µM
IC50 (Beta-secretase 1): 15.3 µM
IC50 [13]: 13.9 µM
Activity [21]: 6.8 µM
IC50 (Cholinesterase [14]): 6.3 µM

SMILES: COc1cc(/C=C/c2cc(=O)oc3c2ccc2oc(-c4ccc(C)cc4)cc23)cc(OC)c1
IC50 (Acetylcholinesterase [12]): 1.8 µM
IC50 [13]: 13.9 µM
IC50 (Cholinesterase [14]): 3.5 µM

IC50 [5]: 1.14 µM
inhibition [22]: 58.9%
IC50 [23]: 19.5 µM
IC50 [24]: 2.6 µM
SMILES: Clc1ccc(/C=N/c2ccc3cn[nH]c3c2)cc1Cl

— ChEMBL document CHEMBL5126540, “Resveratrol-based compounds and neurodegeneration: Recent insight in multitarget therapy” (Eur J Med Chem, 2022)
